According to patent US20120121591A1 (priority 2009, published 2012):
Where two headings read alike, the source gives them in different places.

Assays:
Assay type in all cases: cell-based
[1] = target: hKv1.3 (Homo sapiens, UniProt P22001); assay: cell-based; details: read-out: Kv1.3 (IWQ) IC50 (nM, Avg)
[2] = test system: IL-2 secretion from T cells in human whole blood; details: read-out: WB (IL-2) IC50 (nM, Avg)
[3] = test system: IFN-g secretion from T cells in human whole blood
[4] = read-out: WB (IFNg) IC50 (nM, Avg)

Sequence of hKv1.3 (P22001 whole entry): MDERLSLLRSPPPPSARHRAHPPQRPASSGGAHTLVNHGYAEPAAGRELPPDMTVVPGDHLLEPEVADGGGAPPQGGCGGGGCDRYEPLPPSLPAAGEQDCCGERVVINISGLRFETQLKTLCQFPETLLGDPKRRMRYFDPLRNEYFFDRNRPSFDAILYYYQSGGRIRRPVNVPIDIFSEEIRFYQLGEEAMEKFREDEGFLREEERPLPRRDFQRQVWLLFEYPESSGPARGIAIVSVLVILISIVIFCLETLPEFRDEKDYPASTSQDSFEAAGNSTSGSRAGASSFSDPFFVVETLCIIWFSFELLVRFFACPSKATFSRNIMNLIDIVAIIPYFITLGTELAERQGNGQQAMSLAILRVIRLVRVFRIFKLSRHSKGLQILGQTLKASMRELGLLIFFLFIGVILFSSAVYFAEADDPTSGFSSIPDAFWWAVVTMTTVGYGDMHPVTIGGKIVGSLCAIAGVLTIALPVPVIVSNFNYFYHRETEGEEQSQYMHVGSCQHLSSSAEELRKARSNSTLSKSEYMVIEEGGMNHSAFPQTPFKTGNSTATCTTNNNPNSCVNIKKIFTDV

| Compound | IC50 [1] | IC50 [2] | IC50 [3, 4] | IC50 ([3]; read-out: WB (IFNg) IC5- (nM, Avg)) |
| --- | --- | --- | --- | --- |
| 20kDaPEG-[-Nal16]ShK (RSCIDTIPKSRCTAFXCKHSMKYRLSFCRKTCGTC; 20 kDa PEG; 1-Nal16; ShK PEGylated toxin peptide analog; PEGylated; 3-(1-naphthyl)alanine) | 39.1 nM | – | – | – |
| CC[C@H](C)[C@@H]1NC(=O)[C@@H](NC(=O)[C@H](CO)NC(=O)[C@@H](N)CCCNC(=N)N)CSSC[C@@H](C(=O)O)NC(=O)[C@H]([C@@H](C)O)NC(=O)CNC(=O)[C@@H]2CSSC[C@@H]3NC(=O)[C@H](CCC(N)=O)NC(=O)[C@H](Cc4ccccc4)NC(=O)[C@H](C)NC(=O)[C@H]([C@@H](C)O)NC(=O)[C@H](CSSC[C@H](NC(=O)[C@H](Cc4ccccc4)NC(=O)[C@H](CO)NC(=O)[C@H](CC(C)C)NC(=O)[C@H](CCCNC(=N)N)NC(=O)[C@H](Cc4ccc(O)cc4)NC(=O)[C@H](CCCCN)NC(=O)[C@H](CCSC)NC(=O)[C@H](C)NC(=O)[C@H](Cc4c[nH]cn4)NC(=O)[C@H](CCCCN)NC3=O)C(=O)N[C@@H](CCCNC(=N)N)C(=O)N[C@@H](CCCCN)C(=O)N[C@@H]([C@@H](C)O)C(=O)N2)NC(=O)[C@H](CCCNC(=N)N)NC(=O)[C@H](CO)NC(=O)[C@H](CCCCN)NC(=O)[C@@H]2CCCN2C(=O)[C@H]([C@@H](C)CC)NC(=O)[C@H]([C@@H](C)O)NC(=O)[C@H](CC(=O)O)NC1=O [[Ala20]ShK] | – | 0.3 nM | 0.825 nM | – |
| CC[C@H](C)[C@@H]1NC(=O)[C@H]([C@@H](C)O)NC(=O)[C@H](CC(=O)O)NC(=O)[C@H](CCCNC(=N)N)NC(=O)[C@@H](NC(=O)[C@H](CO)NC(=O)[C@@H](N)CCCNC(=N)N)CSSC[C@@H](C(=O)O)NC(=O)[C@H]([C@@H](C)O)NC(=O)CNC(=O)[C@@H]2CSSC[C@@H]3NC(=O)[C@H](CCC(N)=O)NC(=O)[C@H](Cc4ccccc4)NC(=O)[C@H](C)NC(=O)[C@H]([C@@H](C)O)NC(=O)[C@H](CSSC[C@H](NC(=O)[C@H](Cc4ccccc4)NC(=O)[C@H](CO)NC(=O)[C@H](CC(C)C)NC(=O)[C@H](CCCNC(=N)N)NC(=O)[C@H](Cc4ccc(O)cc4)NC(=O)[C@H](CCCCN)NC(=O)[C@H](CCSC)NC(=O)[C@H](CO)NC(=O)[C@H](Cc4c[nH]cn4)NC(=O)[C@H](CCCCN)NC3=O)C(=O)N[C@@H](CCCNC(=N)N)C(=O)N[C@@H](CCCCN)C(=O)N[C@@H]([C@@H](C)O)C(=O)N2)NC(=O)[C@H](CCCNC(=N)N)NC(=O)[C@H](CO)NC(=O)[C@H](CCCCN)NC(=O)[C@@H]2CCCN2C1=O [[Arg4]ShK] | – | 0.051 nM | 0.081 nM | – |
| CC[C@H](C)[C@@H]1NC(=O)[C@@H](NC(=O)[C@H](CO)NC(=O)[C@@H](N)CCCNC(=N)N)CSSC[C@@H](C(=O)O)NC(=O)[C@H]([C@@H](C)O)NC(=O)CNC(=O)[C@@H]2CSSC[C@@H]3NC(=O)[C@H](CCC(N)=O)NC(=O)[C@H](Cc4ccccc4)NC(=O)[C@H](C)NC(=O)[C@H]([C@@H](C)O)NC(=O)[C@H](CSSC[C@H](NC(=O)[C@H](Cc4ccccc4)NC(=O)[C@H](CO)NC(=O)[C@H](CC(C)C)NC(=O)[C@H](CCCNC(=N)N)NC(=O)[C@H](Cc4ccc(O)cc4)NC(=O)[C@H](CCCCN)NC(=O)[C@H](CCSC)NC(=O)[C@H](CO)NC(=O)[C@H](Cc4c[nH]cn4)NC(=O)[C@H](CCCNC(=N)N)NC3=O)C(=O)N[C@@H](CCCNC(=N)N)C(=O)N[C@@H](CCCCN)C(=O)N[C@@H]([C@@H](C)O)C(=O)N2)NC(=O)[C@H](CCCNC(=N)N)NC(=O)[C@H](CO)NC(=O)[C@H](CCCCN)NC(=O)[C@@H]2CCCN2C(=O)[C@H]([C@@H](C)CC)NC(=O)[C@H]([C@@H](C)O)NC(=O)[C@H](CC(=O)O)NC1=O [[Arg18]ShK] | – | 0.012 nM | 0.023 nM | – |
| CC[C@H](C)[C@@H]1NC(=O)[C@@H](NC(=O)[C@H](CO)NC(=O)[C@@H](N)CCCNC(=N)N)CSSC[C@@H](C(=O)O)NC(=O)[C@H](CCCNC(=N)N)NC(=O)CNC(=O)[C@@H]2CSSC[C@@H]3NC(=O)[C@H](CCC(N)=O)NC(=O)[C@H](Cc4ccccc4)NC(=O)[C@H](C)NC(=O)[C@H]([C@@H](C)O)NC(=O)[C@H](CSSC[C@H](NC(=O)[C@H](Cc4ccccc4)NC(=O)[C@H](CO)NC(=O)[C@H](CC(C)C)NC(=O)[C@H](CCCNC(=N)N)NC(=O)[C@H](Cc4ccc(O)cc4)NC(=O)[C@H](CCCCN)NC(=O)[C@H](CCSC)NC(=O)[C@H](CO)NC(=O)[C@H](Cc4c[nH]cn4)NC(=O)[C@H](CCCCN)NC3=O)C(=O)N[C@@H](CCCNC(=N)N)C(=O)N[C@@H](CCCCN)C(=O)N[C@@H]([C@@H](C)O)C(=O)N2)NC(=O)[C@H](CCCNC(=N)N)NC(=O)[C@H](CO)NC(=O)[C@H](CCCCN)NC(=O)[C@@H]2CCCN2C(=O)[C@H]([C@@H](C)CC)NC(=O)[C@H]([C@@H](C)O)NC(=O)[C@H](CC(=O)O)NC1=O [[Arg34]ShK] | – | 0.418 nM | 0.486 nM | – |
| CCCC[C@@H]1NC(=O)[C@H](CO)NC(=O)[C@H](Cc2c[nH]cn2)NC(=O)[C@H](CCC(=O)O)NC(=O)[C@@H]2CSSC[C@@H]3NC(=O)[C@H]([C@@H](C)O)NC(=O)[C@H](CCCNC(=N)N)NC(=O)[C@H](CCCNC(=N)N)NC(=O)[C@H](CSSC[C@H](NC(=O)[C@H](CCCNC(=N)N)NC(=O)[C@H](CO)NC(=O)[C@H](CCCCN)NC(=O)[C@@H]4CCCN4C(=O)[C@H]([C@@H](C)CC)NC(=O)[C@H]([C@@H](C)O)NC(=O)[C@H](CC(=O)O)NC(=O)[C@H](CCC(=O)O)NC(=O)[C@@H](NC(=O)[C@H](CO)NC(=O)[C@@H](N)CCCNC(=N)N)CSSC[C@@H](C(N)=O)NC(=O)[C@H]([C@@H](C)O)NC(=O)CNC3=O)C(=O)N[C@@H]([C@@H](C)O)C(=O)N[C@@H](C)C(=O)N[C@@H](Cc3ccccc3)C(=O)N[C@@H](CCCCN)C(=O)N2)NC(=O)[C@H](Cc2ccccc2)NC(=O)[C@H](CO)NC(=O)[C@H](CC(C)C)NC(=O)[C@H](CCCNC(=N)N)NC(=O)[C@H](Cc2ccc(O)cc2)NC(=O)[C@H](CCCCN)NC1=O [[Glu4,18, Lys16,Nle21, Arg30]ShK-amide] | – | 0.97 nM | 1.99 nM | – |
| CC[C@H](C)[C@@H]1NC(=O)[C@@H](NC(=O)[C@H](CO)NC(=O)[C@@H](N)CCCNC(=N)N)CSSC[C@@H](C(=O)O)NC(=O)[C@H]([C@@H](C)O)NC(=O)CNC(=O)[C@@H]2CSSC[C@@H]3NC(=O)[C@H](CCC(N)=O)NC(=O)[C@H](Cc4ccccc4)NC(=O)[C@H](CCC(=O)O)NC(=O)[C@H]([C@@H](C)O)NC(=O)[C@H](CSSC[C@H](NC(=O)[C@H](Cc4ccccc4)NC(=O)[C@H](CO)NC(=O)[C@H](CC(C)C)NC(=O)[C@H](CCCNC(=N)N)NC(=O)[C@H](Cc4ccc(O)cc4)NC(=O)[C@H](CCCCN)NC(=O)[C@H](CCSC)NC(=O)[C@H](CO)NC(=O)[C@H](Cc4c[nH]cn4)NC(=O)[C@H](CCCCN)NC3=O)C(=O)N[C@@H](CCCNC(=N)N)C(=O)N[C@@H](CCCCN)C(=O)N[C@@H]([C@@H](C)O)C(=O)N2)NC(=O)[C@H](CCCNC(=N)N)NC(=O)[C@H](CO)NC(=O)[C@H](CCCCN)NC(=O)[C@@H]2CCCN2C(=O)[C@H]([C@@H](C)CC)NC(=O)[C@H]([C@@H](C)O)NC(=O)[C@H](CC(=O)O)NC1=O [[Glu14]ShK] | – | 0.035 nM | – | 0.132 nM |
| CC[C@H](C)[C@@H]1NC(=O)[C@@H](NC(=O)[C@H](CO)NC(=O)[C@@H](N)CCCNC(=N)N)CSSC[C@@H](C(=O)O)NC(=O)[C@H]([C@@H](C)O)NC(=O)CNC(=O)[C@@H]2CSSC[C@@H]3NC(=O)[C@H](CCCCN)NC(=O)[C@H](Cc4ccccc4)NC(=O)[C@H](C)NC(=O)[C@H]([C@@H](C)O)NC(=O)[C@H](CSSC[C@H](NC(=O)[C@H](Cc4cccc5ccccc45)NC(=O)[C@H](CO)NC(=O)[C@H](CC(C)C)NC(=O)[C@H](CCCNC(=N)N)NC(=O)[C@H](Cc4ccc(O)cc4)NC(=O)[C@H](CCCCN)NC(=O)[C@H](CCSC)NC(=O)[C@H](CO)NC(=O)[C@H](Cc4c[nH]cn4)NC(=O)[C@H](CCCCN)NC3=O)C(=O)N[C@@H](CCCCN)C(=O)N[C@@H](CCCNC(=N)N)C(=O)N[C@@H]([C@@H](C)O)C(=O)N2)NC(=O)[C@H](CCCNC(=N)N)NC(=O)[C@H](CO)NC(=O)[C@H](CCCCN)NC(=O)[C@@H]2CCCN2C(=O)[C@H]([C@@H](C)CC)NC(=O)[C@H]([C@@H](C)O)NC(=O)[C@H](CC(=O)O)NC1=O [[Lys16,29; 1-Na127;Arg30]ShK] | – | 3.37 nM | 3.83 nM | – |
| CC[C@H](C)[C@@H]1NC(=O)[C@@H](NC(=O)[C@H](CO)NC(=O)[C@@H](N)CCCNC(=N)N)CSSC[C@@H](C(=O)O)NC(=O)[C@H]([C@@H](C)O)NC(=O)CNC(=O)[C@@H]2CSSC[C@@H]3NC(=O)[C@H](CCCCN)NC(=O)[C@H](Cc4ccccc4)NC(=O)[C@H](C)NC(=O)[C@H]([C@@H](C)O)NC(=O)[C@H](CSSC[C@H](NC(=O)[C@H](Cc4ccccc4)NC(=O)[C@H](CO)NC(=O)[C@H](CC(C)C)NC(=O)[C@H](CCCNC(=N)N)NC(=O)[C@H](Cc4ccc(O)cc4)NC(=O)[C@H](CCCCN)NC(=O)[C@H](CCSC)NC(=O)[C@H](CO)NC(=O)[C@H](Cc4c[nH]cn4)NC(=O)[C@H](CCCCN)NC3=O)C(=O)N[C@@H](CCCNC(=N)N)C(=O)N[C@@H](CCCNC(=N)N)C(=O)N[C@@H]([C@@H](C)O)C(=O)N2)NC(=O)[C@H](CCCNC(=N)N)NC(=O)[C@H](CO)NC(=O)[C@H](CCCCN)NC(=O)[C@@H]2CCCN2C(=O)[C@H]([C@@H](C)CC)NC(=O)[C@H]([C@@H](C)O)NC(=O)[C@H](CC(=O)O)NC1=O [[Lys16,Arg30]ShK] | – | 0.169 nM | 0.189 nM | – |
